# Test results from PMC13243568, “Massive barcode-free chemical screenings enable the discovery of bioactive macrocycles with passive membrane permeability” (Nature Communications, 2026).
# Entries after “also recorded” stand apart in the source; their conditions may differ. Starred links: 1 amine or outer side, 2 acyl side, 3 side chain; linkers in the order of their positions; H or OH if unused. Positions of bridges follow the written chain, without caps; N, C: chain ends. Non-standard residues stand in square brackets, D forms with d. Residues, ends and D or L forms follow the SMILES beside them. *: point of attachment. Phenylacetyl(3,4,5-triOMe) = COc1cc(CC(=O)*)cc(OC)c1OC; Biotin = O=C1N[C@H]2[C@H](CS[C@H]2CCCCC(=O)*)N1; Benzoyl(4-SO2NH2) = NS(=O)(=O)c1ccc(C(=O)*)cc1; Tyr(3-Cl) = N[C@@H](Cc1ccc(O)c(Cl)c1)C(=O)O; X1 = O=C([C@H]1CC[C@@H](N[*:1])C1)[*:2]; oXylylene = c1ccc(C[*:2])c(C[*:1])c1; εLys = N[C@@H](CCCCN[*:1])C(=O)[*:2]
# What was measured:
# [1] = Parallel artificial membrane permeability assay (PAMPA); assay type: in vitro ADME
# Description: The plate system consisted of a 96-well microwell plate (donor wells) and a 96-well insert containing a PVDF membrane coated with tri-layers of phospholipids (acceptor wells). Permeability was measured from the bottom plate (donor wells) to the top insert (acceptor wells). Cyclic peptide or reference compound solutions were prepared at a concentration of 100 μM in 1xPBS buffer (pH 7.4) containing 1% DMSO, and 300 μl of the resulting solutions was placed into the donor wells of the PAMPA plate. Acceptor wells were prepared by adding 200 μl of PBS buffer (pH 7.4) containing 1% DMSO. The insert was stacked onto the donor plate, and the system was covered with a lid to avoid evaporation. […] Additionally, 3:2 dilutions of the 100 μM cyclic peptide stocks were prepared in 1xPBS buffer (pH 7.4) containing 1% DMSO to yield a sample corresponding to the theoretical equilibrium between donor and acceptor wells. The samples were run on the UPLC–HRMS to measure the cyclic peptide concentration representing maximum permeability. […]
# Parallel artificial membrane permeability assay (PAMPA):
# Permeability measurements
# The insert was then stacked onto the donor […]
# concentration of permeated peptides. To establish a reference for maximum permeability, 3:2 […]
# the theoretical equilibrium between the donor and acceptor chambers. These equilibrium samples […]
# Permeability (%) = [PeptideAcceptor ] (4)
# P = VD×VA × −ln (1 − [PeptideAcceptor] ) (5) […]
# MV-4:11 cells = assay: Cell viability, CellTiter-Glo, MV-4:11; assay type: cell-based; conditions: 72 h
# CAIX = molecular target: T1, CAIX (Homo sapiens, UniProt Q16790); assay: BLI direct binding assay against CAIX; conditions: biotinylated hit immobilized on streptavidin sensor, CAIX in solution; curves did not reach saturation; read-out: kinetic KD (BLI)
# T1 construct: Anhydrase IX (38-414), His,Avitag (CA9H82E3); His; Avitag (biotinylated); purchased ACROBiosystems CA9H82E3
# Description: Biolayer interferometry (BLI) assays were performed in 96-well plates (GreinerBio-One, polypropylene, flat-bottom, chimney well) using an Octet R4 system (SATORIUS). Wells were filled with 200 μL of kinetic buffer, compound solution or protein solution, purified compounds. Proteins were dissolved in the appropriate kinetic buffer specific for each target (CAIX: 1× PBS, 0.02% Tween-20, 1 mg/mL BSA [0.1% w/v]; WDR5: 20 mM Tris, 500 mM NaCl, pH 8.0, 0.02% Tween-20, and 1 mg/mL BSA [0.1% w/v]).
# Purified biotinylated compounds were dissolved in an appropriate kinetic buffer and immobilized onto the streptavidin biosensor for 60 s. Sensors were then dipped into the kinetic buffer for 60 s, a concentration gradient of protein solution for 300 s and into the kinetic buffer for 300 s. Measurements were carried out at 20 °C.
# Table S2: ASMS buffer summary.
# B Biotinylated CAIX (1.5 μM) in A Biotinylated WDR5 (1.5 μM) in A […]
# μM d-biotin 0.02% Tween-20, 400 μM biotin
# D 10% FBS, 1x PBS 20m mM Tris, 500 mM NaCl, pH 8, 10% FBS, E 10 fmol/member library in buffer D 10 fmol/member library in buffer D F 1x PBS 20m mM Tris, 500 mM NaCl, pH 8
# G 6M Guanidine HCl, 200 mM phosphate 6M Guanidine HCl, 200 mM phosphate buffer, pH 6.8, 10 mM TCEP HCl buffer, pH 6.8, 10 mM TCEP HCl
# Sample preparation after AS: Following the affinity selection, samples were desalted using StageTips. […]
# WDR5-MLL PPI = molecular target: T2, WDR5-MLL PPI (Homo sapiens, UniProt P61964); assay: BLI competition assay, displacement of immobilized MLL peptide 16 from WDR5; assay type: binding; conditions: for inhibition of WDR5-MLL interaction, in words: 100 nM inhibitor, MLL immobilized on BLI tips; for displacement of MLL peptide from WDR5: tested at 100 and 50 nM WDR5; for Binding (ratio to control): Figure S11, BLI competition, control = WDR5 without inhibitor
# T2 construct: A truncated human WDR5 construct encoding amino acids 22–; SUMO (N); made in house; host or cells: E. coli BL21 (DE3) (WDR5); the peptide was made by chemical synthesis
# Description: Purified biotinylated competitors were dissolved in the appropriate kinetic buffer and immobilized onto the streptavidin biosensors at 100 nM for 60 s. Sensors were then dipped into the kinetic buffer for 60 s, and the concentration gradient of macrocyclic hit in a constant concentration protein solution for 600 s. Measurements were carried out at 20 °C. […]
# was immobilized for 60 sec. at 100 nM. […]
# were reincubated and association was measured for 600 sec. […]
# Biolayer interferometry (BLI): Biolayer interferometry (BLI) assays were performed in 96 well plates (GreinerBio -One, polypropylene, flat ‐bottom, chimney well) using an Octet R4 system (SATORIUS).
# Wells were filled with 200 μL with kinetic buffer, compound solution or protein solution , purifi ed compounds . Proteins were dissolved in the appropriate kinetic buffer specific for each target (CAIX:
# Tween -20, 1 mg/mL BSA [0.1% w/v]). […]
# Measurements were carried out at 20 °C.
# Competition assay: Purified biotinylated competitor were dissolved in appropriate kinetic buffer and immobilized onto the streptavidin biosensors at 100nM for 60s. Sensors were then dipped into kinetic buffer for 60 s and concentration gradient of macrocyclic hit in constant concentration protein solution for 600s. Measurements were carried out at 20 °C.
# [2] = Serum stability assay in 25% human serum; conditions: pH 7.4
smiles,measurement,setting,value
COc1cc(CC(=O)N[C@H]2CSCc3ccccc3CSCCNC(=O)[C@H](Cc3c[nH]c4ccccc34)NC(=O)[C@H](CCCNC(=N)N)NC(=O)[C@H]3CC[C@H](C3)NC2=O)cc(OC)c1OC [Compound 17Δ],Permeability (%),[1]; PAMPA,17.17%
same,permeability (PAMPA),[1]; PAMPA,16%
same,"inhibition of MV-4:11 cell proliferation, in words",MV-4:11 cells,did not inhibit cancer cell proliferation
N=C(N)NCCC[C@@H]1NC(=O)[C@H](Cc2ccc(O)c(Cl)c2)NC(=O)[C@H](CCCCN)NC(=O)[C@@H](NC(=O)c2ccc(S(N)(=O)=O)cc2)CSSC[C@@H](C(=O)N[C@@H](CCCCN)C(=O)NCCCC[C@H](N)C(=O)NCCCC[C@H](N)C(=O)N[C@@H](CCCCNC(=O)CCCC[C@@H]2SC[C@@H]3NC(=O)N[C@@H]32)C(N)=O)NC1=O [Compound 7] ({Benzoyl(4-SO2NH2)}-CK[Tyr(3-Cl)]RCK[εLys][εLys]K(Biotin)-NH2; disulfide 1-5),Kd,CAIX,1 nM
"COc1cc(CC(=O)N[C@H]2CSCc3ccccc3CSC[C@@H](C(N)=O)NC(=O)[C@H](Cc3c[nH]c4ccccc34)NC(=O)[C@H](CCCNC(=N)N)NC(=O)[C@H]3CC[C@H](C3)NC2=O)cc(OC)c1OC [Compound 17] ({Phenylacetyl(3,4,5-triOMe)}-C[X1]RWC-NH2; linker 1-5 via oXylylene; C-terminus assumed)","inhibition of WDR5-MLL interaction, in words",WDR5-MLL PPI; WDR5 50 nM,retained strong inhibition potency
N=C(N)NCCC[C@@H]1NC(=O)[C@H]2CC[C@H](C2)NC(=O)[C@@H](NC(=O)Cc2cc(F)c(F)cc2F)CSCc2ccccc2CSCCNC(=O)[C@H](Cc2c[nH]c3ccccc23)NC1=O [Compound 23],displacement of MLL peptide from WDR5,WDR5-MLL PPI,≥ 50%
same,permeability (PAMPA),"[1]; 100 µM, 18 h incubation, RT",45%
COc1cc(CC(=O)N[C@H]2CSCc3cccc(c3)CSCCNC(=O)[C@H](Cc3c[nH]c4ccccc34)NC(=O)[C@H](CCCNC(=N)N)NC(=O)[C@H]3CC[C@H](C3)NC2=O)cc(OC)c1OC [Compound 18Δ],permeability (PAMPA),[1]; PAMPA,11%
COc1cc(CC(=O)N(C)[C@H]2CSCc3ccccc3CSCCNC(=O)[C@H](Cc3c[nH]c4ccccc34)NC(=O)[C@H](CCCNC(=N)N)NC(=O)[C@H]3CC[C@H](C3)NC2=O)cc(OC)c1OC [s5],Binding (ratio to control),WDR5-MLL PPI,0.37
same,"passive permeability (PAMPA), in words",[1]; PAMPA,reduced permeability
CC(=O)N[C@H]1CSSC[C@@H](C(N)=O)NC(=O)[C@H](Cc2c[nH]c3ccccc23)NC(=O)[C@H](CCCNC(=N)N)NC(=O)[C@H]2CC[C@H](C2)NC1=O [Compound 15] (Ac-C[X1]RWC-NH2; disulfide 1-5; C-terminus assumed),"inhibition of WDR5-MLL interaction, in words",WDR5-MLL PPI; WDR5 50 nM,reduced (yet not abolished) activity; also recorded: maintained partial inhibitory activity
COc1cc(CC(=O)N[C@H]2CSCc3ccc(cc3)CSCCNC(=O)[C@H](Cc3c[nH]c4ccccc34)NC(=O)[C@H](CCCNC(=N)N)NC(=O)[C@H]3CC[C@H](C3)NC2=O)cc(OC)c1OC [Compound 19Δ],permeability (PAMPA),[1]; PAMPA,< 5%
CCCCCC(C)C(=O)N[C@H]1CSCc2ccccc2CSCCNC(=O)[C@H](Cc2c[nH]c3ccccc23)NC(=O)[C@H](CCCNC(=N)N)NC(=O)[C@H]2CC[C@H](C2)NC1=O (stereo partly shown) [Compound 27],displacement of MLL peptide from WDR5,WDR5-MLL PPI,≥ 50%
same,permeability (PAMPA),"[1]; 100 µM, 18 h incubation, RT",72%
N=C(N)NCCC[C@@H]1NC(=O)[C@H]2CC[C@H](C2)NC(=O)[C@@H](NC(=O)CCc2ccc(Br)cc2)CSCc2ccccc2CSCCNC(=O)[C@H](Cc2c[nH]c3ccccc23)NC1=O [Compound 28],displacement of MLL peptide from WDR5,WDR5-MLL PPI,≥ 50%
"COc1cc(CC(=O)N[C@H]2CSSC[C@@H](C(N)=O)NC(=O)[C@H](Cc3c[nH]c4ccccc34)NC(=O)[C@H](CCCNC(=N)N)NC(=O)[C@H]3CC[C@H](C3)NC2=O)cc(OC)c1OC [Compound 14] ({Phenylacetyl(3,4,5-triOMe)}-C[X1]RWC-NH2; disulfide 1-5; C-terminus assumed)","inhibition of WDR5-MLL interaction, in words",WDR5-MLL PPI; WDR5 50 nM,maintains full activity; also recorded: no association was detected; also recorded: comparable inhibitory potency
same,IC50,"WDR5-MLL PPI; 16 immobilized at 100 nM, WDR5 50 nM, lower detection limit 25 nM, read-out: IC50, inhibition of WDR5-MLL PPI (BLI competition)",< 25 nM
same,permeability (PAMPA),[1]; PAMPA,< 1%
COc1cc(CC(=O)N[C@H]2CSCc3ccccc3CSCCNC(=O)[C@H](Cc3c[nH]c4ccccc34)N(C)C(=O)[C@H](CCCNC(=N)N)NC(=O)[C@H]3CC[C@H](C3)NC2=O)cc(OC)c1OC [s7],Binding (ratio to control),WDR5-MLL PPI,0.83
same,"passive permeability (PAMPA), in words",[1]; PAMPA,reduced permeability
N=C(N)NCCC[C@@H]1NC(=O)[C@H]2CC[C@H](C2)NC(=O)[C@@H](NC(=O)c2ccc(Cl)s2)CSCc2ccccc2CSCCNC(=O)[C@H](Cc2c[nH]c3ccccc23)NC1=O [Compound 25],displacement of MLL peptide from WDR5,WDR5-MLL PPI,≥ 50%
same,"remaining at 24 h, 25 μM",[2],> 50%
same,permeability (PAMPA),"[1]; 100 µM, 18 h incubation, RT",51%
N=C(N)NCCC[C@@H]1NC(=O)[C@H]2CC[C@H](C2)NC(=O)[C@@H](NC(=O)Cc2ccccc2Br)CSCc2ccccc2CSCCNC(=O)[C@H](Cc2c[nH]c3ccccc23)NC1=O [Compound 26],displacement of MLL peptide from WDR5,WDR5-MLL PPI,≥ 50%
COc1cc(CC(=O)N[C@H]2CSCc3ccc(cc3)-c3ccc(cc3)CSCCNC(=O)[C@H](Cc3c[nH]c4ccccc34)NC(=O)[C@H](CCCNC(=N)N)NC(=O)[C@H]3CC[C@H](C3)NC2=O)cc(OC)c1OC [Compound 20Δ],permeability (PAMPA),[1]; PAMPA,< 5%
